≈ marks a conversion by molar mass, not a printed value. Where “and” joins values, the source holds several entries; their conditions need not be identical. Identical values can stand only once. Like-named read-outs stand apart in the source and are kept apart here.
Legend:
[1] = Solubility of compound 1 crystalline free base in different solvents, by HPLC; type: physicochemical; settings: thermodynamic from solid, crystalline free base slurry, room temperature, 4 day solution, read-out: Conc. FB (solubility)
Method: About 10 mg of compound 1, crystalline free base (FB), was loaded into a vial with a magnetic stir bar. About 150 μL of solvent were added to each vial. If compound 1 dissolved completely, more solid was added to the vial and stirring of the resulting slurry was continued at room temperature. The 4 day solution was filtered off using centrifuge filters and diluted in methanol to obtain solubility data by HPLC analysis. X-ray diffraction data of the crystals in the slurry were collected after 4 and 14 days.

c-Met = target: T1, c-Met (Homo sapiens, UniProt P08581); assay: Inhibition of c-Met activity in Snu5 gastric carcinoma cells (Snu5-AP1-Luc-Pest luciferase signal); type: cell-based; settings: 6 hours, luciferase luminescence
T1 construct: is a human gastric carcinoma known to overexpress c-Met, which is constitutively active; host or cells: Snu5-AP1-Luc-Pest (Snu5 transduced with an AP1-luciferase-PEST reporter)
Text: Compound 1 was also screened for their ability to inhibit the Luciferase-induced signal in an engineered Snu5 cell line. Snu5 [obtained from American Type Culture Collection (Catalog number CRL-5973)] is a human gastric carcinoma known to overexpress c-Met, which is constitutively active. […] The constitutively active c-Met activates cellular pathways (principally MAP kinase), resulting in AP-1-induced transcription of luciferase-PEST and translation into the final product, the activity of which is quantifiable as a chemiluminescent readout upon the addition of luciferin (Steady-Glo from Promega.). Residual luminescence is strongly correlated to the inhibition of c-Met. A stable cell line was obtained by selecting the new cell line (Snu5-AP1-Luc-Pest) with puromycin. The cells were grown in complete media [Iscove's media (Invitrogen) containing 10% fetal bovine serum (FBS, Hyclone) and penicillin/gentamycin (Invitrogen)]. Compounds of the invention were dissolved in DMSO to make 10 mM initial stock solutions. Serial dilutions in DMSO were then made and transferred to complete medium to make a 10× solution. The Snu5-AP1-Luc-Pest cells were counted and diluted to 200,000-cells/mL solution. […] The plate was read on a 1450 Microbeta Liquid Scintillation and Luminescence Counter (Perkin-Elmer). The IC50 was calculated using a 4-parameter fit using the graphing software Prism (GraphPad).

hERG = target: T2, hERG (Homo sapiens, UniProt Q12809); assay: hERG inhibition assay, whole cell recording in HEK293 cells expressing hERG; type: cell-based; settings: hERG current, peak tail current
T2 construct: host or cells: HEK293
Method: Peak tail current was measured during the 2 second step to −50 mV.

CYP1A2 = target: T3, CYP1A2 (Homo sapiens, UniProt P05177); assay: Stability in human recombinant CYP isoform; type: in vitro ADME; settings: 120 minutes, 50 pmoles CYP/mL, NADPH, two separate studies (two lines)
T3 construct: host or cells: baculovirus-infected insect cells
T3 sequence (P05177 1-516): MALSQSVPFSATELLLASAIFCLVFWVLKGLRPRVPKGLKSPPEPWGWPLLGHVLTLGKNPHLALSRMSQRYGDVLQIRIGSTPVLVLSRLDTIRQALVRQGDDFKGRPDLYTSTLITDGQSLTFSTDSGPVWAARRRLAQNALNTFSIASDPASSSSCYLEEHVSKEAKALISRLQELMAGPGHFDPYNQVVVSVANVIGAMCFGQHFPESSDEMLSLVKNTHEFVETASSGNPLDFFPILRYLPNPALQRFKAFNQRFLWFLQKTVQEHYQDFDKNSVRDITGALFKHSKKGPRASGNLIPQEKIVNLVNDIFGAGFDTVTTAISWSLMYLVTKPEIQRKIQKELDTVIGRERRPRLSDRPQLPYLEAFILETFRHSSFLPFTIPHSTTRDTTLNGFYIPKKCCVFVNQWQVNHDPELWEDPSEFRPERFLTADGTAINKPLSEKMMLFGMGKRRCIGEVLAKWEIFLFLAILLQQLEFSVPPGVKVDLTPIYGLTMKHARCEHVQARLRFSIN
Method: (§1) The stability of compound 1 was evaluated in cDNA Baculovirus-insect cell-expressed human cytochrome P450 (CYP) isoforms CYP1A2, CYP2B6, CYP2C9, CYP2C19, CYP2D6, CYP2E1, and CYP3A4. Accordingly, the human recombinant cytochrome P450 isoforms at a final concentration of 50 pmoles of CYP/mL were incubated in phosphate buffer (pH 7.4) with 2.0 mM NADPH and compound 1 at compound concentrations of 1 μM and 10 μM. Sampling was conducted at 0 and 120 minutes and the amount of compound remaining was evaluated by LC/MS/MS analysis.

CYP2B6 = target: T4, CYP2B6 (Homo sapiens, UniProt P20813); assay: Stability in human recombinant CYP isoform; type: in vitro ADME; settings: 120 minutes, 50 pmoles CYP/mL, NADPH, two separate studies (two lines)
T4 construct: host or cells: baculovirus-infected insect cells
T4 sequence (P20813 1-491): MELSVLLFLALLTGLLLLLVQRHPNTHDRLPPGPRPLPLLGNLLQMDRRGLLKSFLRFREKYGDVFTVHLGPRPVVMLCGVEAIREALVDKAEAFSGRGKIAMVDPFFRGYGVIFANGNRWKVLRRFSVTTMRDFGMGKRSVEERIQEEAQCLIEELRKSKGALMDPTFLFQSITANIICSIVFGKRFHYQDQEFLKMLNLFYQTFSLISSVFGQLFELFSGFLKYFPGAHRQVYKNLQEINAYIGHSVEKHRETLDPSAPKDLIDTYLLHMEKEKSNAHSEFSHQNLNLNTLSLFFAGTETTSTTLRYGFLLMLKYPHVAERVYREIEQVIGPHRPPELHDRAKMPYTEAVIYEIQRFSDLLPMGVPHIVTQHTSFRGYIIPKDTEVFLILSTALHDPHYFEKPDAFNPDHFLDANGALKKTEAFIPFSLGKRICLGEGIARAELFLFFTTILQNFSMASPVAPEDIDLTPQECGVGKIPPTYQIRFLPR
Method: as §1

CYP2C19 = target: T5, CYP2C19 (Homo sapiens, UniProt P33261); assay: Stability in human recombinant CYP isoform; type: in vitro ADME
T5 construct: host or cells: baculovirus-infected insect cells
Method: as §1

CYP2C9 = target: T6, CYP2C9 (Homo sapiens, UniProt P11712); assay: Stability in human recombinant CYP isoform; type: in vitro ADME; settings: 120 minutes, 50 pmoles CYP/mL, NADPH, two separate studies (two lines)
T6 construct: host or cells: baculovirus-infected insect cells
Method: as §1

CYP2D6 = target: T7, CYP2D6 (Homo sapiens, UniProt P10635); assay: Stability in human recombinant CYP isoform; type: in vitro ADME; settings: 120 minutes, 50 pmoles CYP/mL, NADPH, two separate studies (two lines)
T7 construct: host or cells: baculovirus-infected insect cells
Method: as §1

CYP2E1 = target: T8, CYP2E1 (Homo sapiens, UniProt P05181); assay: Stability in human recombinant CYP isoform; type: in vitro ADME; settings: 120 minutes, 50 pmoles CYP/mL, NADPH, two separate studies (two lines)
T8 construct: host or cells: baculovirus-infected insect cells
Method: as §1

CYP3A4 = target: T9, CYP3A4 (Homo sapiens, UniProt P08684); assay: Stability in human recombinant CYP isoform; type: in vitro ADME
T9 construct: host or cells: baculovirus-infected insect cells
Method: as §1

[2] = compound at 10 μM, 120 minutes, 50 pmoles CYP/mL, NADPH, two separate studies (two lines)

T9 sequence (P08684 whole entry, canonical isoform): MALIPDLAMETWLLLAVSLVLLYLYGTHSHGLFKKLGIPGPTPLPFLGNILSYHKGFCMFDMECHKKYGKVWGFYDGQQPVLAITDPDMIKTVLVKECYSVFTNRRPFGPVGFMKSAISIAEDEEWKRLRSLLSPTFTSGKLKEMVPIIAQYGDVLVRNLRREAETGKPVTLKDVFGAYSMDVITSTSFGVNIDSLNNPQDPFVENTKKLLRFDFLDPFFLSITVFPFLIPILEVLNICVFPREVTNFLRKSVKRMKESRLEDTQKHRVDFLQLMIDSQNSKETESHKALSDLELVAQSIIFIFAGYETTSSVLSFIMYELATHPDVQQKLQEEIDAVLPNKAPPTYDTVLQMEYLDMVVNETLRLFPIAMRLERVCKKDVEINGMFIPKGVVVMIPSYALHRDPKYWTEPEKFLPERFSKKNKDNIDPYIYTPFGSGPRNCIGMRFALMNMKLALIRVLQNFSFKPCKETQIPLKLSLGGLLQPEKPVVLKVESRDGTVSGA
T6 sequence (P11712 whole entry, canonical isoform): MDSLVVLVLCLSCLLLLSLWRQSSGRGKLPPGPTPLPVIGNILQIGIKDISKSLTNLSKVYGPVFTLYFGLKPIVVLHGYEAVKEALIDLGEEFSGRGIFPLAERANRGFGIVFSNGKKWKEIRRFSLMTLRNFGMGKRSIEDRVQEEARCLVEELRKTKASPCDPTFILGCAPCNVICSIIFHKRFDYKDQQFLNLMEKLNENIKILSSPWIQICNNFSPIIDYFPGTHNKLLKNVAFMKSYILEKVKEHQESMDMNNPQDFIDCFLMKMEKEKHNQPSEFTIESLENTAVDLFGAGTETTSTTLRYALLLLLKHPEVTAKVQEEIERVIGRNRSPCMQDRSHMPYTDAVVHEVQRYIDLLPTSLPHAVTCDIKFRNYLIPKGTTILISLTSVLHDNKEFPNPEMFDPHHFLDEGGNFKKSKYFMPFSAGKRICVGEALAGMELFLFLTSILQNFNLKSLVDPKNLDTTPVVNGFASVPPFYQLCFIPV
T8 sequence (P05181 whole entry, canonical isoform): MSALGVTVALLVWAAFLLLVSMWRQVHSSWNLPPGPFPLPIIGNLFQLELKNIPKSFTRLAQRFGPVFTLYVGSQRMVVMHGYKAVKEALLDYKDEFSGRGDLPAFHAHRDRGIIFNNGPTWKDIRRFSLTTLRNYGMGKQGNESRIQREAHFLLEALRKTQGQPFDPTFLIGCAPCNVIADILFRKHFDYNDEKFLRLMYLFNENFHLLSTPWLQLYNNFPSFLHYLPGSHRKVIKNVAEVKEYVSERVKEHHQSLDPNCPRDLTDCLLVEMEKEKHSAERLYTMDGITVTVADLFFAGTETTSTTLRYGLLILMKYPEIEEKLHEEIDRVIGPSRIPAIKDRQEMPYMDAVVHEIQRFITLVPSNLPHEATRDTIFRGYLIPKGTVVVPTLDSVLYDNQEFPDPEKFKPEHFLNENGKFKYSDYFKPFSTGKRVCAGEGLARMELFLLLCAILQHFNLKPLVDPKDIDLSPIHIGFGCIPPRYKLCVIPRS
T5 sequence (P33261 whole entry, canonical isoform): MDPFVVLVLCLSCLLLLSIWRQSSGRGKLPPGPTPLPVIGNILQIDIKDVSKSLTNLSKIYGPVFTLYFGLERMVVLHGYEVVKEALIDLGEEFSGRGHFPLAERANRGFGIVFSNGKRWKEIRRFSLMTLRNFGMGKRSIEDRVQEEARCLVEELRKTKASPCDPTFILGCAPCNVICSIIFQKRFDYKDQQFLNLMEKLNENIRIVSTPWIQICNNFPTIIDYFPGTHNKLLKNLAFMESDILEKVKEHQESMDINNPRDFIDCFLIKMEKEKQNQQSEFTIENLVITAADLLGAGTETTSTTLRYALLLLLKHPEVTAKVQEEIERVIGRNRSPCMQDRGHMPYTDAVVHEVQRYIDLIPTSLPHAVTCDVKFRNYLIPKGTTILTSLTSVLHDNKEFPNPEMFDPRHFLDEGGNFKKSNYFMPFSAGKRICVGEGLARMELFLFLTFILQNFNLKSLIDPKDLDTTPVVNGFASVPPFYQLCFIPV
T7 sequence (P10635 whole entry, canonical isoform): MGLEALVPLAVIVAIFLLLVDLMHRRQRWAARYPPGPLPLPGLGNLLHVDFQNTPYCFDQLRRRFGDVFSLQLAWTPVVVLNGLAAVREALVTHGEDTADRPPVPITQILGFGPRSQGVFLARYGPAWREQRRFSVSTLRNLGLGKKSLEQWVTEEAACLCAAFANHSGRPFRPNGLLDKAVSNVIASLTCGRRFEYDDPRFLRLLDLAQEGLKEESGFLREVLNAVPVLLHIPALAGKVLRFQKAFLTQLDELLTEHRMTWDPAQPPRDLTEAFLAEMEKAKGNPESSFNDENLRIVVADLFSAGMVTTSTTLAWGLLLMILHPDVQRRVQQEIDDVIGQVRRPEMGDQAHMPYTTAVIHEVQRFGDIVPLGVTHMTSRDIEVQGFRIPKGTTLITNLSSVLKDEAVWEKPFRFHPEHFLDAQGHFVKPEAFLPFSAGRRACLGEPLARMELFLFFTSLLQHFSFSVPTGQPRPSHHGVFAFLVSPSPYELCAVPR
T2 sequence (Q12809 whole entry): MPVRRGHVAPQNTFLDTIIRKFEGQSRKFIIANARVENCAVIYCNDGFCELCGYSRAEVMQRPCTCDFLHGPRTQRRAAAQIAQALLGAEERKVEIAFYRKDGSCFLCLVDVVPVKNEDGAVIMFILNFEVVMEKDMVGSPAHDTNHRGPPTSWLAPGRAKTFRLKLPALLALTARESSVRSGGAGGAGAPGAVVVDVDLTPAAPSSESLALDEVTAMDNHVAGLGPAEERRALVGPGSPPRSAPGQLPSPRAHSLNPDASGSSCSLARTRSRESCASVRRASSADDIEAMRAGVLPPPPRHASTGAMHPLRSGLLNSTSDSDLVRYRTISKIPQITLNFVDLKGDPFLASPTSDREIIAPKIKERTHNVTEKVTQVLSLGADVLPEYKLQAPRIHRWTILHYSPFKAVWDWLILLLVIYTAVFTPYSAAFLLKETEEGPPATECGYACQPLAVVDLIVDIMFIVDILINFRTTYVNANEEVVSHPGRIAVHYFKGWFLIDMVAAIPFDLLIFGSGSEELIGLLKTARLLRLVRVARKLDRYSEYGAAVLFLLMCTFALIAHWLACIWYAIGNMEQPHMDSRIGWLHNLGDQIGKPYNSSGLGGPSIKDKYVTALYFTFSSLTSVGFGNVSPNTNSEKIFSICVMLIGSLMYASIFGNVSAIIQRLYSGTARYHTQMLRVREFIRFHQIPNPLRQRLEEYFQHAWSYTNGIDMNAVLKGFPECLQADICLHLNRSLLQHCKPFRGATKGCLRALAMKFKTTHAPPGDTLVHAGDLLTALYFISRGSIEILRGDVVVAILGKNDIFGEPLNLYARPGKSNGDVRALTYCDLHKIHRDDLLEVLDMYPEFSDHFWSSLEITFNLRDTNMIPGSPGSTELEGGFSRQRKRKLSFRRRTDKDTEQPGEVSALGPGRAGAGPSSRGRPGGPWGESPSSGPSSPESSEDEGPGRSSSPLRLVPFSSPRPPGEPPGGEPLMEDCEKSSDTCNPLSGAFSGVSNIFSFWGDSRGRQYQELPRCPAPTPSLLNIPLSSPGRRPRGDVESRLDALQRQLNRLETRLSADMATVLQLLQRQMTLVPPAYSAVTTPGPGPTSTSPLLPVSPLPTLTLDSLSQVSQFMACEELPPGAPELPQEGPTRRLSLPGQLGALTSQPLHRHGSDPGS
T1 sequence (P08581 25-1390): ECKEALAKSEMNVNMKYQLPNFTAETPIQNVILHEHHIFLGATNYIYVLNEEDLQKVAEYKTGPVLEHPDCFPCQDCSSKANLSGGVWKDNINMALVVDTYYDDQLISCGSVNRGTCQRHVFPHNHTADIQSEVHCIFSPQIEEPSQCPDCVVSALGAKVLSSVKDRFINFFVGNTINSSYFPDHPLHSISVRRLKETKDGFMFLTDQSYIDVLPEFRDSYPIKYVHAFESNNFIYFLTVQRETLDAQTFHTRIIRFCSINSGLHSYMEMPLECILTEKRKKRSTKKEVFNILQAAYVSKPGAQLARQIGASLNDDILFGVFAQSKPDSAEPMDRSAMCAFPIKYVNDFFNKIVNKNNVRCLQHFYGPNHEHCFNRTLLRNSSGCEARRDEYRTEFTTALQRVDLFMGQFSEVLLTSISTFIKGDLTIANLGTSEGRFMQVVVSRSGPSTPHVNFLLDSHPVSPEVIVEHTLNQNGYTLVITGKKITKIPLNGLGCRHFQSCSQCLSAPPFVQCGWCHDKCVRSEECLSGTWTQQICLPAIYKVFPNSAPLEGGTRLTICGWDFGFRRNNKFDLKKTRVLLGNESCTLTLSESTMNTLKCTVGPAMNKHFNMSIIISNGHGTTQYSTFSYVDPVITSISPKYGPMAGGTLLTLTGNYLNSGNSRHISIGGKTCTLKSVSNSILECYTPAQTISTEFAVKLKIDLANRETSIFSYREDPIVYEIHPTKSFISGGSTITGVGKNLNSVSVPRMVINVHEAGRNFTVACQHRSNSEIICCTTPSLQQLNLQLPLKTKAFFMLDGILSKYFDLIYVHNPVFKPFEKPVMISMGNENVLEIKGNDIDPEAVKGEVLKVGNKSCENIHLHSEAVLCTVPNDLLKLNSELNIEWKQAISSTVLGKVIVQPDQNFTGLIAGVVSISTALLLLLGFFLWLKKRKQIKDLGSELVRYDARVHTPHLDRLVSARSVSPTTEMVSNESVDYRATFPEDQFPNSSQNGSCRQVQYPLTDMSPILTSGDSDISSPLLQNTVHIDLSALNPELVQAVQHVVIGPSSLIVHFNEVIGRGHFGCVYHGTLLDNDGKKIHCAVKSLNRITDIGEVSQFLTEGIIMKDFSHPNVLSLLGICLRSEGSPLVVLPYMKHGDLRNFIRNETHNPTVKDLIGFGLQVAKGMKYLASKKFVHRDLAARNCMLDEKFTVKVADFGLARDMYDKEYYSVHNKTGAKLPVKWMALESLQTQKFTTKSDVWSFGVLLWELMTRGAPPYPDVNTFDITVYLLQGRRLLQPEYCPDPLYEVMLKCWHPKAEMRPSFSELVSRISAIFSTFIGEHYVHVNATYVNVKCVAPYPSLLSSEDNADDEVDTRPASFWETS

C[C@@H](c1ccc2ncccc2c1)c1nnc2sc(-c3cnn(C)c3)nn12 [Compound 1, 6-((S)-1-(6-(1-methyl-1H-pyrazol-4-yl)-[1,2,4]triazolo[3,4-b][1,3,4]thiadiazol-3-yl)ethyl)quinoline]
solubility at 4 day ([1]; organic solvent or mixture, solvent 2-Methyl THF): 9.03 mg/mL (≈ 25 mM)
solubility at 4 day ([1]; organic solvent or mixture, solvent Acetone): 14.3 mg/mL (≈ 39.5 mM)
solubility at 4 day ([1]; organic solvent or mixture, solvent Acetonitrile): 9.76 mg/mL (≈ 27 mM)
solubility at 4 day ([1]; organic solvent or mixture, solvent Benzyl Alcohol): 362 mg/mL (≈ 1000 mM)
solubility at 4 day ([1]; organic solvent or mixture, solvent Cumene): 2.52 mg/mL (≈ 6.97 mM)
solubility at 4 day ([1]; organic solvent or mixture, solvent DCM): 116 mg/mL (≈ 322 mM)
solubility at 4 day ([1]; organic solvent or mixture, solvent DME): 16.1 mg/mL (≈ 44.4 mM)
solubility at 4 day ([1]; organic solvent or mixture, solvent DMSO): 67.7 mg/mL (≈ 187 mM)
solubility at 4 day ([1]; organic solvent or mixture, solvent Diiodomethane): 81 mg/mL (≈ 224 mM)
solubility at 4 day ([1]; organic solvent or mixture, solvent Dioxane): 36.8 mg/mL (≈ 102 mM)
solubility at 4 day ([1]; organic solvent or mixture, solvent EtOAc): 7.24 mg/mL (≈ 20 mM)
solubility at 4 day ([1]; organic solvent or mixture, solvent Ethanol): 42.1 mg/mL (≈ 116 mM)
solubility at 4 day ([1]; organic solvent or mixture, solvent Ethylene Glycol): 35.3 mg/mL (≈ 97.8 mM)
solubility at 4 day ([1]; organic solvent or mixture, solvent Glycerol): 0.69 mg/mL (≈ 1.91 mM)
solubility at 4 day ([1]; organic solvent or mixture, solvent IPA): 7.92 mg/mL (≈ 21.9 mM)
solubility at 4 day ([1]; organic solvent or mixture, solvent MEK): 14.2 mg/mL (≈ 39.4 mM)
solubility at 4 day ([1]; organic solvent or mixture, solvent MTBE): 0.3 mg/mL (≈ 0.83 mM)
solubility at 4 day ([1]; organic solvent or mixture, solvent Methanol): 41 mg/mL (≈ 114 mM)
solubility at 4 day ([1]; organic solvent or mixture, solvent Nitromethane): 44.4 mg/mL (≈ 123 mM)
solubility at 4 day ([1]; solvent water): 0.15 mg/mL (≈ 0.415 mM)
IC50 (c-Met): 0.023 µM
IC50 (hERG): 110 µM
% remaining +/− SDEV (CYP1A2; compound at 1 μM): 113 +/− 7.2% and 79 +/− 9.6%
% remaining +/− SDEV (CYP1A2; compound at 10 μM): 96.7 +/− 4.3% and 86 +/− 7.8%
% remaining +/− SDEV (CYP2B6; compound at 1 μM): 93 +/− 5.4% and 91.7 +/− 10.4%
% remaining +/− SDEV (CYP2B6; compound at 10 μM): 99 +/− 4.8% and 101 +/− 1.4%
% remaining +/− SDEV (CYP2C19; [2]): 40.3 +/− 2.2% and 34 +/− 3.3%
Metabolism by the CYP isoform, in words (CYP2C19; summary of Table 4): metabolized by both CYP2C19 and CYP3A4 isoforms
% remaining +/− SDEV (CYP2C9; compound at 1 μM): 128 +/− 22.5% and 96 +/− 2.2%
% remaining +/− SDEV (CYP2C9; compound at 10 μM): 101 +/− 4.4% and 101 +/− 8.5%
% remaining +/− SDEV (CYP2D6; compound at 1 μM): 102 +/− 3.6% and 125 +/− 44.2%
% remaining +/− SDEV (CYP2D6; compound at 10 μM): 94.7 +/− 4.4% and 130 +/− 11%
% remaining +/− SDEV (CYP2E1; compound at 1 μM): 109 +/− 19% and 164 +/− 54.8%
% remaining +/− SDEV (CYP2E1; compound at 10 μM): 109 +/− 5.6% and 111 +/− 1.1%
% remaining +/− SDEV (CYP3A4; [2]): 31.8 +/− 2.1% and 56 +/− 14%
Metabolism by the CYP isoform, in words (CYP3A4; summary of Table 4): metabolized by both CYP2C19 and CYP3A4 isoforms
